Literature values, collected in article PMC8513935.

Columns and labels:
[1] = log P octanol/water from commercial databases, averaged (the ESI); details: Octanol (wet), 25 C
[2] = experimental, compiled by the authors from the literature (the ESI cites the sources)
[3] = derived by the authors as gas->solvent minus gas->water (a hypothetical dry solvent; the ESI), not a two-phase measurement

Row | Structure (SMILES) | log K of transfer, water to solvent [1] [log10 K] | log K of transfer, gas to solvent ([2]; Chlorobenzene, 25 C) [log10 K] | log K of transfer, gas to solvent ([2]; Hexadecane, 25 C) [log10 K] | log K of transfer, gas to solvent ([2]; Hexane, 25 C) [log10 K] | log K of transfer, gas to solvent ([2]; Water, 25 C) [log10 K] | log K of transfer, water to solvent ([3]; Chlorobenzene, 25 C) [log10 K] | log K of transfer, water to solvent ([3]; Hexadecane, 25 C) [log10 K] | log K of transfer, water to solvent ([3]; Hexane, 25 C) [log10 K] | log K of transfer, gas to solvent ([2]; Butanone, 25 C) [log10 K] | log K of transfer, water to solvent ([3]; Butanone, 25 C) [log10 K] | log K of transfer, gas to solvent ([2]; 1,2-Dichloroethane, 25 C) [log10 K] | log K of transfer, gas to solvent ([2]; CCl4, 25 C) [log10 K] | log K of transfer, gas to solvent ([2]; Chloroform, 25 C) [log10 K] | log K of transfer, gas to solvent ([2]; Dichloromethane, 25 C) [log10 K] | log K of transfer, gas to solvent ([2]; Octan-1-ol, 25 C) [log10 K] | log K of transfer, gas to solvent ([2]; Perfluoroalkane, 25 C) [log10 K] | log K of transfer, water to solvent ([3]; 1,2-Dichloroethane, 25 C) [log10 K] | log K of transfer, water to solvent ([3]; CCl4, 25 C) [log10 K] | log K of transfer, water to solvent ([3]; Chloroform, 25 C) [log10 K] | log K of transfer, water to solvent ([3]; Octan-1-ol(dry), 25 C) [log10 K] | also measured
1 | Oc1ccccc1 | 1.5 | 5.1 | 3.76 | 3.67 | 4.85 | 0.25 | -1.08 | -1.18 | – | – | 5.46 | 4.55 | 5.17 | 5.49 | 5.68 | 2.23 | 0.61 | -0.3 | 0.32 | 0.83 | log K of transfer, gas to solvent ([2]; Benzene, 25 C): 5.22 log10 K; log K of transfer, gas to solvent ([2]; Cyclohexane, 25 C): 4.03 log10 K; log K of transfer, gas to solvent ([2]; Toluene, 25 C): 5.08 log10 K; log K of transfer, water to solvent ([3]; Benzene, 25 C): 0.37 log10 K; log K of transfer, water to solvent ([3]; Cyclohexane, 25 C): -0.813 log10 K; log K of transfer, water to solvent ([3]; Dichloromethane, 25 C): 0.64 log10 K; log K of transfer, water to solvent ([3]; Perfluoroalkane, 25 C): -2.62 log10 K; log K of transfer, water to solvent ([3]; Toluene, 25 C): 0.23 log10 K
2 | CCC(C)O (stereo not drawn) | 0.65 | 3.12 | 2.34 | 2.61 | 3.39 | -0.27 | -1.05 | -0.783 | 3.8 | 0.41 | – | 2.85 | 3.69 | – | 3.8 | – | – | -0.54 | 0.3 | 0.41 | log K of transfer, gas to solvent ([2]; 2-Methylpropan-2-ol, 25 C): 4.16 log10 K; log K of transfer, gas to solvent ([2]; Butan-1-ol, 25 C): 4.03 log10 K; log K of transfer, gas to solvent ([2]; Butan-2-ol, 25 C): 4.09 log10 K; log K of transfer, gas to solvent ([2]; Decan-1-ol, 25 C): 3.89 log10 K; log K of transfer, water to solvent ([3]; 2-Methylpropan-2-ol, 25 C): 0.77 log10 K; log K of transfer, water to solvent ([3]; Butan-1-ol, 25 C): 0.64 log10 K; log K of transfer, water to solvent ([3]; Butan-2-ol, 25 C): 0.7 log10 K; log K of transfer, water to solvent ([3]; Decan-1-ol, 25 C): 0.506 log10 K
3 | CCCCl | 2.04 | – | 2.2 | 2.47 | 0.24 | – | 1.96 | 2.23 | 2.7 | 2.46 | 2.71 | 2.71 | 2.65 | – | 2.24 | – | 2.47 | 2.47 | 2.41 | 2 | log K of transfer, gas to solvent ([2]; Butan-1-ol, 25 C): 2.32 log10 K; log K of transfer, gas to solvent ([2]; Cyclohexanone, 25 C): 2.69 log10 K; log K of transfer, water to solvent ([3]; Butan-1-ol, 25 C): 2.08 log10 K; log K of transfer, water to solvent ([3]; Cyclohexanone, 25 C): 2.45 log10 K

Now from value to compound, other results behind:

Row | log K of transfer, water to solvent [1] [log10 K] | log K of transfer, gas to solvent ([2]; Chlorobenzene, 25 C) [log10 K] | log K of transfer, gas to solvent ([2]; Hexadecane, 25 C) [log10 K] | log K of transfer, gas to solvent ([2]; Hexane, 25 C) [log10 K] | log K of transfer, gas to solvent ([2]; Water, 25 C) [log10 K] | log K of transfer, water to solvent ([3]; Chlorobenzene, 25 C) [log10 K] | log K of transfer, water to solvent ([3]; Hexadecane, 25 C) [log10 K] | log K of transfer, water to solvent ([3]; Hexane, 25 C) [log10 K] | log K of transfer, gas to solvent ([2]; Butanone, 25 C) [log10 K] | log K of transfer, water to solvent ([3]; Butanone, 25 C) [log10 K] | Structure (SMILES) | log K of transfer, gas to solvent ([2]; 1,2-Dichloroethane, 25 C) [log10 K] | log K of transfer, gas to solvent ([2]; CCl4, 25 C) [log10 K] | log K of transfer, gas to solvent ([2]; Chloroform, 25 C) [log10 K] | log K of transfer, gas to solvent ([2]; Dichloromethane, 25 C) [log10 K] | log K of transfer, gas to solvent ([2]; Octan-1-ol, 25 C) [log10 K] | log K of transfer, gas to solvent ([2]; Perfluoroalkane, 25 C) [log10 K] | log K of transfer, water to solvent ([3]; 1,2-Dichloroethane, 25 C) [log10 K] | log K of transfer, water to solvent ([3]; CCl4, 25 C) [log10 K] | log K of transfer, water to solvent ([3]; Chloroform, 25 C) [log10 K] | log K of transfer, water to solvent ([3]; Octan-1-ol(dry), 25 C) [log10 K] | also measured
4 | 3.7 | – | 4.23 | 4.07 | 0.39 | – | 3.84 | 3.68 | – | – | CCCc1ccccc1 | – | – | – | – | 4.09 | – | – | – | – | 3.7 | log K of transfer, gas to solvent ([2]; Methanol, 25 C): 3.91 log10 K; log K of transfer, gas to solvent ([2]; Propan-2-ol, 25 C): 3.93 log10 K; log K of transfer, gas to solvent ([2]; Tetrahydrofuran, 25 C): 4.87 log10 K; log K of transfer, water to solvent ([3]; Methanol, 25 C): 3.52 log10 K; log K of transfer, water to solvent ([3]; Propan-2-ol, 25 C): 3.54 log10 K; log K of transfer, water to solvent ([3]; Tetrahydrofuran, 25 C): 4.48 log10 K
5 | 4.8 | 3.64 | 3.31 | 3.64 | -2.02 | 5.66 | 5.33 | 5.66 | 3.14 | 5.16 | CC(C)CCC(C)C | 3.1 | 3.66 | 3.56 | 3.4 | – | 2.37 | 5.12 | 5.68 | 5.58 | – | log K of transfer, gas to solvent ([2]; Acetonitrile, 25 C): 2.39 log10 K; log K of transfer, gas to solvent ([2]; Butyronitrile, 25 C): 2.92 log10 K; log K of transfer, gas to solvent ([2]; Cyclohexanone, 25 C): 3.06 log10 K; log K of transfer, gas to solvent ([2]; Propan-2-ol, 25 C): 2.87 log10 K; log K of transfer, gas to solvent ([2]; Propanone, 25 C): 2.95 log10 K; log K of transfer, gas to solvent ([2]; Propionitrile, 25 C): 2.76 log10 K; log K of transfer, gas to solvent ([2]; Tetrahydrofuran, 25 C): 3.53 log10 K; log K of transfer, gas to solvent ([2]; Toluene, 25 C): 3.47 log10 K; log K of transfer, water to solvent ([3]; Acetone, 25 C): 4.97 log10 K; log K of transfer, water to solvent ([3]; Acetonitrile, 25 C): 4.41 log10 K; log K of transfer, water to solvent ([3]; Butyronitrile, 25 C): 4.94 log10 K; log K of transfer, water to solvent ([3]; Cyclohexanone, 25 C): 5.08 log10 K; log K of transfer, water to solvent ([3]; Dichloromethane, 25 C): 5.42 log10 K; log K of transfer, water to solvent ([3]; Perfluoroalkane, 25 C): 4.39 log10 K; log K of transfer, water to solvent ([3]; Propan-2-ol, 25 C): 4.89 log10 K; log K of transfer, water to solvent ([3]; Propionitrile, 25 C): 4.78 log10 K; log K of transfer, water to solvent ([3]; Tetrahydrofuran, 25 C): 5.55 log10 K; log K of transfer, water to solvent ([3]; Toluene, 25 C): 5.49 log10 K
